Experimental data reported in publication PMC4884539 (Journal of molecular biology, 2016).

Conditions: pH 7.4

Substance	Solubility (in words)
Ac- RGEaWmYlKNNLSETmMsNmWGR- NH2 [AP6]	less soluble
Ac- MNWESkGEwlRMRYGtmLSNGnM- NH2 [Design P2]	less soluble
